Where two headings read alike, the source gives them in different places.

One assay relates to platelets. Description: Platelet levels in mice after 5 consecutive once daily injections. It is filed as in vivo, mice (Hsd:Athymic Nude-Foxn1nu). Particulars: blood 60min after last dose. How it is done:
On the fifth day, 60min after the administration, mice were sacrificed and blood was collected in sodium citrate-containing tubes for haemogram analysis. Platelet levels were determined and referred as % of platelets compared with the levels found in mice treated with vehicle. Platelet levels were determined in a standard hematology analyzer (Abacus Junior Vet, from Diatron) following the manufacturer's instructions.
20% 2-hydroxypropyl-β-cyclodextrin in H2O was used as a vehicle. When necessary, 10% DMSO was also added in the vehicle. Each day, compounds were administered in a single intraperitoneal injection with administration volumes of 15 ml/kg.
Mice strain was Hsd:Athymic Nude-Foxn1nu. Animals were maintained in air and temperature controlled cages with regular supply of water and food.

The target in a further assay is LSD1 (Homo sapiens, UniProt O60341). Description: LSD1 demethylase inhibition, Amplex Red peroxide/peroxidase-coupled assay. Format: biochemical. On the set-up: purchased BPS Bioscience Inc. From the text: Compounds for use in the methods of the invention can be identified by their ability to inhibit LSD1. The ability of the compounds of the invention to inhibit LSD1 can be tested as follows. Human recombinant LSD1 protein was purchased from BPS Bioscience Inc. In order to monitor LSD1 enzymatic activity and/or its inhibition rate by our inhibitor(s) of interest, di-methylated H3-K4 peptide (Millipore) was chosen as a substrate. The demethylase activity was estimated, under aerobic conditions, by measuring the release of H2O2 produced during the catalytic process, using the Amplex® Red peroxide/peroxidase-coupled assay kit (Invitrogen).
Within the experiment, each concentration of inhibitor was tested in triplicate. […] The enzymatic reactions were set up in a 50 mM sodium phosphate, pH 7.4 buffer. At the end of the incubation, Amplex® Red reagent and horseradish peroxidase (HPR) solution were added to the reaction according to the recommendations provided by the supplier (Invitrogen), and left to incubate for 30 extra minutes at room temperature in the dark. A 1 μM H2O2 solution was used as a control of the kit efficiency. The conversion of the Amplex® Red reagent to resorufin due to the presence of H2O2 in the assay, was monitored by fluorescence (excitation at 540 nm, emission at 590 nm) using a microplate reader (Infinite 200, Tecan). Arbitrary units were used to measure level of H2O2 produced in the absence and/or in the presence of inhibitor.
The maximum demethylase activity of LSD1 was obtained in the absence of inhibitor and corrected for background fluorescence in the absence of LSD1. The Ki (IC50) of each inhibitor was estimated at half of the maximum activity.

In assay [1] the test system is H3K4 methylation in SH-SY5Y cells. Put plainly: Western blot for dimethylated H3-K4 in cells grown with compound. Format: cell-based. From the text:
FIG. 3 Compound Dual-1 Increases Histone Methylation.
B-actin was used as a loading control.
For orientation: A western blot detects proteins with antibodies after separation by electrophoresis.

Assay [2] concerns the target T1, Human recombinant monoamine oxidase MAO-A (Homo sapiens, UniProt P21397).
T1 construct: purchased Sigma Aldrich
T1 sequence (P21397 1-527): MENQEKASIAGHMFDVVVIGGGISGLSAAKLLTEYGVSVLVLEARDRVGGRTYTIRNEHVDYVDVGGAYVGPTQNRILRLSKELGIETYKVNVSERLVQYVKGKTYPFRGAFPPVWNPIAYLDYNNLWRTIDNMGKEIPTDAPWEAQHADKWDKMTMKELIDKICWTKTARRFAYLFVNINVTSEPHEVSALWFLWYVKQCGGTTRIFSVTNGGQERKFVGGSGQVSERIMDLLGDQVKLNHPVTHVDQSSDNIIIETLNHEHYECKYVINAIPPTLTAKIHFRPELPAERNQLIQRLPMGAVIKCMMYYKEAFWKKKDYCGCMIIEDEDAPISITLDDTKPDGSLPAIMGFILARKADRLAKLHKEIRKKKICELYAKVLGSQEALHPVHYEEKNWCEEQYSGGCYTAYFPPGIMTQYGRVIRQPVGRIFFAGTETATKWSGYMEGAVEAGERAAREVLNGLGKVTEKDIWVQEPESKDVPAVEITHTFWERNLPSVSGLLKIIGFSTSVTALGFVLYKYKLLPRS
Description: MAO-A inhibition, kynuramine fluorescence assay. It is filed as biochemical. From the text:
(§1) Human recombinant monoamine oxidase proteins MAO-A and MAO-B were purchased from Sigma Aldrich. MAOs catalyze the oxidative deamination of primary, secondary and tertiary amines. In order to monitor MAO enzymatic activities and/or their inhibition rate by inhibitor(s) of interest, a fluorescent-based (inhibitor)-screening assay was set up. 3-(2-Aminophenyl)-3-oxopropanamine (kynuramine dihydrobromide, Sigma Aldrich), a non fluorescent compound was chosen as a substrate. Kynuramine is a non-specific substrate for both MAOs activities. While undergoing oxidative deamination by MAO activities, kynuramine is converted into 4-hydroxyquinoline (4-HQ), a resulting fluorescent product.
The monoamine oxidase activity was estimated by measuring the conversion of kynuramine into 4-hydroxyquinoline. Assays were conducted in 96-well black plates with clear bottom (Corning) in a final volume of 100 μL. The assay buffer was 100 mM HEPES, pH 7.5. Each experiment was performed in triplicate within the same experiment.
Briefly, a fixed amount of MAO (0.25 μg for MAO-A and 0.5 μg for MAO-B) was incubated on ice for 15 minutes in the reaction buffer, in the absence and/or in the presence of various concentrations of inhibitor (e.g., from 0 to 50 μM, depending on the inhibitor strength).
After leaving the enzyme(s) interacting with the inhibitor, 60 to 90 μM of kynuramine was added to each reaction for MAO-B and MAO-A assay respectively, and the reaction was left for 1 hour at 37° C. in the dark. The oxidative deamination of the substrate was stopped by adding 50 μL (v/v) of NaOH 2N. The conversion of kynuramine to 4-hydroxyquinoline, was monitored by fluorescence (excitation at 320 nm, emission at 360 nm) using a microplate reader (Infinite 200, Tecan). Arbitrary units were used to measure levels of fluorescence produced in the absence and/or in the presence of inhibitor.
(§2) The Ki (IC50) of each inhibitor was determined at Vmax/2.

Assay [3] has as its system K562 chronic myelogenous leukemia cells. Put plainly: In vitro cytotoxicity, fluorometry-based cell viability, K562. To be noted: Homo sapiens, K562, 72 h. On the procedure:
(§3) K562 chronic myelogenous leukemia cells were seeded at different cell densities in 96-well plates. 24 hours later, compounds were added at serial dilutions.

Assay [4] deals with RPMI-8226 (Multiple myeloma). Put plainly: In vitro cytotoxicity, RPMI-8226. Format: cell-based. To be noted: Homo sapiens; RPMI-8226, same protocol as K562. On the procedure:
as §3
(§4) Following the same protocol, in vitro cytotoxicity against other hematological cancer cell lines was tested.

The target in assay [5] is T2, Human recombinant monoamine oxidase MAO-B (Homo sapiens, UniProt P27338).
T2 construct: purchased Sigma Aldrich
T2 sequence (P27338 1-520): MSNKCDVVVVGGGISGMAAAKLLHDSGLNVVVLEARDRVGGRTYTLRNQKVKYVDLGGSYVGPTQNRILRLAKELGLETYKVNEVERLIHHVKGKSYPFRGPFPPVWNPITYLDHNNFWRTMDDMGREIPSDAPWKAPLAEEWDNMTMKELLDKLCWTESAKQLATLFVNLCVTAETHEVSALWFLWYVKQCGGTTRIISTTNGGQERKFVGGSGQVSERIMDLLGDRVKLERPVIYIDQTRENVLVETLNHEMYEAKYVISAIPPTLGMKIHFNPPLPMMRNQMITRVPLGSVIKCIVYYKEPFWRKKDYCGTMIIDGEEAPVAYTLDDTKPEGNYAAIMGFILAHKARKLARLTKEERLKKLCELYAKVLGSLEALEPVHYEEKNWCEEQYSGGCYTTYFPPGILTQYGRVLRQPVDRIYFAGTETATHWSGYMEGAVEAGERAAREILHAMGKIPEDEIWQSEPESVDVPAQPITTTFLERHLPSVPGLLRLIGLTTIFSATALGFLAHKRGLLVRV
Description: MAO-B inhibition, kynuramine fluorescence assay. Format: biochemical.
Text: as §1
The monoamine oxidase activity was estimated by measuring the conversion of kynuramine into 4-hydroxyquinoline. […]
After leaving the enzyme(s) interacting with the inhibitor, 60 to 90 μM of kynuramine was added to each reaction for MAO-B and MAO-A assay respectively, and the reaction was left for 1 hour at 37° C. in the dark. […] The conversion of kynuramine to 4-hydroxyquinoline, was monitored by fluorescence (excitation at 320 nm, emission at 360 nm) using a microplate reader (Infinite 200, Tecan). Arbitrary units were used to measure levels of fluorescence produced in the absence and/or in the presence of inhibitor.
as §2

For assay [6], the system named is Jurkat (acute T cell leukemia). Put plainly: In vitro cytotoxicity, Jurkat. It is filed as cell-based. To be noted: Homo sapiens, same protocol as K562. How it is done: as §3, §4
For assay [7], the system named is HL-60 (acute promyelocytic leukemia). Description: In vitro cytotoxicity, HL-60. Format: cell-based. To be noted: Homo sapiens; HL-60, same protocol as K562. How it is done: as §3, §4
The mark [8] stands for this setting: 10 mg/kg intraperitoneal once daily for 5 days.
[9] abbreviates: 20 mg/kg intraperitoneal once daily for 5 days.
Where [10] appears, read: 40 mg/kg intraperitoneal once daily for 5 days.
Where [11] appears, read: 30 mg/kg intraperitoneal once daily for 5 days.
The mark [12] stands for this setting: read-out: EC50 (μM), concentration at which 50% of the cells remain viable, K562, cell density 3xA, 72h after compound addition.
Where [13] appears, read: read-out: EC50 (μM), concentration at which 50% of the cells remain viable, K562, cell density 10xA, 72h after compound addition.
The mark [14] stands for this setting: read-out: EC50 (μM), concentration at which 50% of the cells remain viable, K562, cell density A, 72h after compound addition.
Setting [15] is: 3 mg/kg intraperitoneal once daily for 5 days.

What is called IC50 is the concentration at which inhibition is half-maximal. Consider `NC(=O)CN[C@H]1CC1c1ccc(OCc2ccccc2)cc1` (stereo partly drawn) [Compound 1], for which the “% platelets vs. Vehicle” value with platelets (5 mg/kg intraperitoneal once daily for 5 days) stood at 91%; with platelets (setting [8]), 66%; in the assay on platelets (setting [9]) it was 55%; in the assay on platelets (setting [10]) it was 34%. Also, the IC50 at LSD1 is less than 0.2 µM; in assay [2], more than 2 µM. Besides, in assay [1] (SH-SY5Y cells grown with compound for 1, 2, and 3 days, Dual-1 at 100 μM (FIG. 3)), the “H3K4 methylation in cells (western blot)” value is listed as “increases H3K4 (4 methylation in cells in a time dependent manner”. Further, in assay [1] (SH-SY5Y cells, Dual-1 at 100 μM, parnate at 250 μM), the “potency at increasing global dimethylated H3K4 levels as compared to tranylcypromine” value is not below 10 fold.
As to `N[C@H]1CCN(CCN[C@H]2C[C@@H]2c2ccc(-c3cccc(C(F)(F)F)c3)cc2)C1` [Compound 5], the “% platelets vs. Vehicle” value in the assay on platelets (setting [8]) is on record as 87%; in the assay on platelets (setting [11]) it was 63%.
For `NC(=O)CN[C@@H]1C[C@H]1c1ccc(OCc2ccccc2)cc1` [Compound 2], the “% platelets vs. Vehicle” value with platelets (setting [9]) came out at 35%; with platelets (setting [10]), 27%; with platelets (60 mg/kg intraperitoneal once daily for 5 days), 16%. Further, the IC50 at LSD1 is less than 0.2 µM; in assay [2] it was more than 2 µM.
`N[C@H]1C[C@@H]1c1ccc(-c2cccc(NS(=O)(=O)c3ccccc3)c2)cc1` [Compound 10]: the EC50 was 13.2 µM in [3] (setting [12]), 17.4 µM in [3] (setting [13]) and 14.8 µM in assay [3] (setting [14]).
As to `CC(C)S(=O)(=O)Nc1cccc(-c2ccc([C@H]3C[C@@H]3N)cn2)c1` [Compound 9], the EC50 was found to be 57.1 µM in assay [3] (setting [12]), 95.1 µM in [3] (setting [13]) and 31.5 µM in assay [3] (setting [14]).
On to `N[C@H]1C[C@@H]1c1ccc(-c2cccc(C(F)(F)F)c2)nc1` [Compound 4], for which the “% platelets vs. Vehicle” value is listed as 87% with platelets (setting [15]); 30% in the assay with platelets (9 mg/kg intraperitoneal once daily for 5 days); 19% in the assay with platelets (setting [8]); 19% in the assay with platelets (18 mg/kg intraperitoneal once daily for 5 days); 7% in the assay with platelets (setting [11]); 11% in the assay with platelets (36 mg/kg intraperitoneal once daily for 5 days).
As usually defined, the GI50 is the concentration giving 50% growth inhibition. Read a high GI50 as lower sensitivity of the cells. `CC(C)S(=O)(=O)Nc1cccc(-c2ccc([C@H]3C[C@@H]3N)cc2)c1` [Compound 8]: the EC50 worked out at 16.3 µM in [3] (setting [12]), 19.7 µM in assay [3] (setting [13]) and 17.2 µM in assay [3] (setting [14]). Besides, the figures for the IC50 (at LSD1; in assay [5]; in assay [2]) were less than 0.07 µM, more than 10 µM and more than 1 µM, respectively. Further, the results for the GI50 in [4], in assay [6] and in [7] were 35.6 µM, 18.2 µM and 21.2 µM, respectively.
For the compound `N[C@H]1CC1c1ccc(-c2cccc(O)c2)cc1` (stereo partly drawn) [Compound 6], the “% platelets vs. Vehicle” value with platelets (17 mg/kg intraperitoneal once daily for 5 days) came out at 56%; in the assay with platelets (34 mg/kg intraperitoneal once daily for 5 days), 46%; with platelets (52 mg/kg intraperitoneal once daily for 5 days) it was 63%. Moreover, the EC50 in [3] (setting [12]) came to 10.3 µM; in assay [3] (setting [13]), 16.8 µM; in assay [3] (setting [14]) it was 16.2 µM. For the same compound, the IC50 was less than 0.07 µM against LSD1, more than 1 µM in assay [5] and more than 1 µM in assay [2].
In the case of `CN1CCN(C(=O)CN[C@H]2C[C@@H]2c2ccc(OCc3ccccc3)cc2)CC1` (racemic) [Compound 3], the “% platelets vs. Vehicle” value in the assay with platelets (1 mg/kg intraperitoneal once daily for 5 days) was 46%; in the assay on platelets (setting [15]), 16%; with platelets (setting [8]) it was 5%.

Values taken from US20170209432A1, “LYSINE DEMETHYLASE INHIBITORS FOR MYELOPROLIFERATIVE OR LYMPHOPROLIFERATIVE DISEASES OR DISORDERS” (ORYZON GENOMICS S.A., priority 2011, published 2017).
